In US20160002204A1 (Board of Regents, The University of Texas System, priority 2014, published 2016):

How the values were obtained:
[1] = molecular target: T1, GLS1 (purified recombinant human GAC) (Homo sapiens, UniProt O94925); assay: GLS1 enzymatic activity assay (dual-coupled, Amplex UltraRed/resorufin); assay type: biochemical
T1 sequence (O94925 55-598 isoform O94925-3 limits assumed): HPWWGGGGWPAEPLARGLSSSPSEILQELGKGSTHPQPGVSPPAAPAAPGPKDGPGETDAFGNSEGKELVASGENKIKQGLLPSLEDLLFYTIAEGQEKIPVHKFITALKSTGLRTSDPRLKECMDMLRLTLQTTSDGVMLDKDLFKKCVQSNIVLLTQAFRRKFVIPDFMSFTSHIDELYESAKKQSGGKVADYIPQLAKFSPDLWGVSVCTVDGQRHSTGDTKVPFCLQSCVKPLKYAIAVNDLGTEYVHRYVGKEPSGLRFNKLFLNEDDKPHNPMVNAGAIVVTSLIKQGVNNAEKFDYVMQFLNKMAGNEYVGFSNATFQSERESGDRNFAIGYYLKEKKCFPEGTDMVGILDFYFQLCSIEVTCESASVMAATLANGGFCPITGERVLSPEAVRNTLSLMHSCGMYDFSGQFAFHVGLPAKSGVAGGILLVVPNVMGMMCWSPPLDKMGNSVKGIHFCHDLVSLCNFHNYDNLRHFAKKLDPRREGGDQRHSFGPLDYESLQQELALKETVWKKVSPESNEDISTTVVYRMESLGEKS
Method in brief: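 Recombinant human GAC (2 nM) preincubated with 50 mM potassium phosphate, then inhibitor (10 min each, RT); 1 mM glutamine, pH 7.4 Hepes buffer, 1% DMSO. Glutamate coupled via glutamate oxidase/HRP to resorufin (Ex 530/Em 590), kinetic or 20-min endpoint; IC50 by four-parameter logistic fit.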

A549 cells = assay: A549 proliferation (viability) assay, Cell Titer Fluor, 72 hours; assay type: cell-based; details: Homo sapiens
Method in brief: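 A549 cells in RPMI 1640 with 10% dialyzed FBS were seeded at 1000 cells/well, grown 24 h, then exposed to compound (0.5% DMSO final) for 72 h at 37 °C, 5% CO2. Viability was read by Cell Titer Fluor fluorescence; EC50 from four-parameter logistic fit.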

Row | IC50 [1] [nM] | EC50 (A549 cells) [nM] | Compound
1 | < 100 | < 100 | O=C(Nc1ccn(CCC(F)Cn2cc(C(=O)NCc3cccc(C(F)(F)F)c3)nn2)c(=O)c1F)C(=O)N1CCCCC1 (centres unmarked) [Example 421, 1-(2-fluoro-4-{3-fluoro-2-oxo-4-[2-oxo-2-(piperidin-1-yl)acetamido]-1,2-dihydropyridin-1-yl}butyl)-N-{[3-(trifluoromethyl)phenyl]methyl}-1H-1,2,3-triazole-4-carboxamide]
2 | < 100 | < 100 | O=C(Nc1ccn(CCC(F)Cn2cc(C(=O)NCc3cc(OC(F)(F)F)ccc3F)nn2)c(=O)c1F)C(=O)N1CCCCC1 (centres unmarked) [Example 422, 11-(2-fluoro-4-(3-fluoro-2-oxo-4-(2-oxo-2-(piperidin-1-yl)acetamido)pyridin-1(2H)-yl)butyl)-N-(2-fluoro-5-(trifluoromethoxy)benzyl)-1H-1,2,3-triazole-4-carboxamide]
3 | < 100 | 100 to 500 | O=C(Nc1ccn(CCC(F)Cn2cc(C(=O)NCc3cc(C(F)(F)F)ccn3)nn2)c(=O)c1F)C(=O)N1CCCCC1 (centres unmarked) [Example 423, 1-(2-fluoro-4-{3-fluoro-2-oxo-4-[2-oxo-2-(piperidin-1-yl)acetamido]-1,2-dihydropyridin-1-yl}butyl)-N-{[4-(trifluoromethyl)pyridin-2-yl]methyl}-1H-1,2,3-triazole-4-carboxamide]
4 | < 100 | 100 to 500 | O=C(Nc1ccn(CCC(F)Cn2cc(C(=O)NCc3cccc(OC(F)(F)F)c3)nn2)c(=O)c1F)C(=O)N1CC2(CCC2)C1 (centres unmarked) [Example 424, 1-{4-[4-(2-{2-azaspiro[3.3]heptan-2-yl}-2-oxoacetamido)-3-fluoro-2-oxo-1,2-dihydropyridin-1-yl]-2-fluorobutyl}-N-{[3-(trifluoromethoxy)phenyl]methyl}-1H-1,2,3-triazole-4-carboxamide]
5 | < 100 | 100 to 500 | CCN(CC)C(=O)C(=O)Nc1ccn(CCC(F)Cn2cc(C(=O)NCc3cccc(OC(F)(F)F)c3)nn2)c(=O)c1F (centres unmarked) [Example 425, N,N-diethyl-N′-(3-fluoro-1-{3-fluoro-4-[4-({[3-(trifluoro-methoxy)phenyl]methyl}carbamoyl)-1H-1,2,3-triazol-1-yl]butyl}-2-oxo-1,2-dihydropyridin-4-yl)ethanediamide]
6 | < 100 | 500 to 5000 | O=C(Nc1ccn(CCC(F)Cn2cc(C(=O)NCc3cccc(OC(F)(F)F)c3)nn2)c(=O)c1F)C(=O)N1CCCC(O)C1 (centres unmarked) [Example 426, 1-(2-fluoro-4-{3-fluoro-4-[2-(3-hydroxypiperidin-1-yl)-2-oxoacetamido]-2-oxo-1,2-dihydropyridin-1-yl}butyl)-N-{[3-(trifluoromethoxy)phenyl]methyl}-1H-1,2,3-triazole-4-carboxamide]
7 | 500 to 5000 | 500 to 5000 | O=C(Nc1ccn(CCC(F)Cn2cc(C(=O)NCc3ccccn3)nn2)c(=O)c1F)C(=O)N1CCCCC1 (centres unmarked) [Example 427, 1-(2-fluoro-4-{3-fluoro-2-oxo-4-[2-oxo-2-(piperidin-1-yl)acetamido]-1,2-dihydropyridin-1-yl}butyl)-N-(pyridin-2-ylmethyl)-1H-1,2,3-triazole-4-carboxamide]
8 | < 100 | < 100 | CC1(C)CN(C(=O)C(=O)Nc2ccn(CCC(F)Cn3cc(C(=O)NCc4cccc(OC(F)(F)F)c4)nn3)c(=O)c2F)C1 (centres unmarked) [Example 428, 1-(4-{4-[2-(3,3-dimethylazetidin-1-yl)-2-oxoacetamido]-3-fluoro-2-oxo-1,2-dihydropyridin-1-yl}-2-fluorobutyl)-N-{[3-(trifluoromethoxy)phenyl]methyl}-1H-1,2,3-triazole-4-carboxamide]
9 | 500 to 5000 | 500 to 5000 | CNC(=O)c1cn(CC(F)CCn2ccc(NC(=O)C(=O)N3CCCCC3)c(F)c2=O)nn1 (centres unmarked) [Example 429, 1-(2-fluoro-4-{3-fluoro-2-oxo-4-[2-oxo-2-(piperidin-1-yl)acetamido]-1,2-dihydropyridin-1-yl}butyl)-N-methyl-1H-1,2,3-triazole-4-carboxamide]
10 | 500 to 5000 | > 5000 | Nc1ccn(CCC(F)Cn2cc(C(=O)NCc3cc(OC(F)(F)F)ccc3F)nn2)c(=O)c1F (centres unmarked) [Example 430, 1-[4-(4-amino-3-fluoro-2-oxo-1,2-dihydropyridin-1-yl)-2-fluorobutyl]-N-{[2-fluoro-5-(trifluoromethoxy)phenyl]methyl}-1H-1,2,3-triazole-4-carboxamide]
11 | < 100 | < 100 | C[C@@H]1CCN(C(=O)C(=O)Nc2ccn(CCC(F)Cn3cc(C(=O)NCc4cc(OC(F)(F)F)ccc4F)nn3)c(=O)c2F)C1 (stereo partly drawn) [Example 431, 1-[2-fluoro-4-(3-fluoro-4-{2-[(3R)-3-methylpyrrolidin-1-yl]-2-oxoacetamido}-2-oxo-1,2-dihydropyridin-1-yl)butyl]-N-{[2-fluoro-5-(trifluoromethoxy)phenyl]methyl}-1H-1,2,3-triazole-4-carboxamide]
12 | < 100 | < 100 | C[C@H]1CCN(C(=O)C(=O)Nc2ccn(CCC(F)Cn3cc(C(=O)NCc4cc(OC(F)(F)F)ccc4F)nn3)c(=O)c2F)C1 (stereo partly drawn) [Example 432, 1-[2-fluoro-4-(3-fluoro-4-{2-[(3S)-3-methylpyrrolidin-1-yl]-2-oxoacetamido}-2-oxo-1,2-dihydropyridin-1-yl)butyl]-N-{[2-fluoro-5-(trifluoromethoxy)phenyl]methyl}-1H-1,2,3-triazole-4-carboxamide]
13 | < 100 | 100 to 500 | COC1CCCN(C(=O)C(=O)Nc2ccn(CCC(F)Cn3cc(C(=O)NCc4cc(OC(F)(F)F)ccc4F)nn3)c(=O)c2F)C1 (centres unmarked) [Example 433, 1-(2-fluoro-4-{3-fluoro-4-[2-(3-methoxypiperidin-1-yl)-2-oxoacetamido]-2-oxo-1,2-dihydropyridin-1-yl}butyl)-N-{[2-fluoro-5-(trifluoromethoxy)phenyl]methyl}-1H-1,2,3-triazole-4-carboxamide]
14 | < 100 | < 100 | O=C(Nc1ccn(CCC(F)Cn2cc(C(=O)NCc3cc(OC(F)(F)F)ccc3F)nn2)c(=O)c1F)C(=O)N1CCC[C@@H](C(F)(F)F)C1 (stereo partly drawn) [Example 434, 1-[2-fluoro-4-(3-fluoro-2-oxo-4-{2-oxo-2-[(3R)-3-(trifluoromethyl)piperidin-1-yl]acetamido)-1,2-dihydropyridin-1-yl)butyl]-N-{[2-fluoro-5-(trifluoromethoxy)phenyl]methyl}-1H-1,2,3-triazole-4-carboxamide]
15 | < 100 | < 100 | O=C(Cc1ccccc1)Nc1ccn(CCCCc2nnc(C(=O)NCc3cccc(OC(F)(F)F)c3)s2)c(=O)c1 [Example 438, 5-{4-[2-oxo-4-(2-phenylacetamido)-1,2-dihydropyridin-1-yl]butyl}-N-{[3-(trifluoromethoxy)phenyl]methyl}-1,3,4-thiadiazole-2-carboxamide]
16 | < 100 | < 100 | O=C(Cc1cccc(OC(F)(F)F)c1)Nc1ccn(CCCCc2nnc(C(=O)NCc3cccc(OC(F)(F)F)c3)s2)c(=O)c1 [Example 439, 5-[4-(2-oxo-4-{2-[3-(trifluoromethoxy)phenyl]acetamido}-1,2-dihydropyridin-1-yl)butyl]-N-{[3-(trifluoromethoxy)phenyl]methyl}-1,3,4-thiadiazole-2-carboxamide]
